Test results published in patent US9512086B2, “Compound for promoting apoptosis of cancer cells and a pharmaceutical composition containing the same and uses thereof” (National Chiao Tung University, priority 2014, dated 2016).

How the values were obtained:
[1] = system: RKO human rectal cancer cell line; test: MTT cell viability, RKO cells; type: cell-based; details: 24 hours, in comparison with Iressa
Description: (§1) The above cell lines were plated in 96-well plates at a density of 1×10^4 cells/well for 16 to 20 hours. […] After drug treatment, the cell lines were washed with phosphate-buffered saline (hereinafter referred to PBS), and were replaced with fresh complete RPMI-1640 medium for 2 days. Thereafter, the medium was replaced and the cells were incubated with 0.5 mg/ml of 3-(4,5-dimethylthiazol-2-yl)-2,5-diphenyltetrazolium bromide reagent (hereinafter referred to MTT, Sigma Chemical Co., St. Louis, Mo.) in complete RPMI-1640 medium for 4 hours. The viable cells converted MTT to formazan that generates a blue-purple color when dissolved in dimethyl sulfoxide (hereinafter referred to DMSO). The intensity of formazan was measured at 565 nm using a plate reader (VERSAmax, Molecular Dynamics, Sunnyvale, Calif.). The relative percentage of cell viability was calculated by dividing the absorbance of treated cells by that of the control in each experiment.

A549 cell line = test: MTT cell viability, A549 cell line; type: cell-based, human; details: Homo sapiens, A549 cell line, 24 hours, MTT
Description: as §1
(§2) After drug treatment, the cells were washed with PBS and replaced with fresh complete RPMI-1640 medium for 2 days. Thereafter, the medium was replaced and the cells were incubated with 0.5 mg/mL of MTT reagent (Sigma Chemical Co., St. Louis, Mo.) in complete RPMI-1640 medium for 4 hours. The intensity of formazan was measured at 565 nm using a plate reader (VERSAmax, Molecular Dynamics, Sunnyvale, Calif.). The relative percentage of cell viability was calculated by dividing the absorbance of treated cells by that of the control in each experiment.

[2] = system: BFTC905 human bladder cancer cell line; test: MTT cell viability, BFTC905 cells; type: cell-based; details: 24 hours, in comparison with Iressa
Description: as §1

[3] = biological target: T1, RET (product of ret proto-oncogene) (Homo sapiens, UniProt P07949); test: KinaseProfiler assay, RET; type: biochemical; details: read-out: KAR value (kinase activity remaining)
T1 construct: purchased Merck Millipore (KinaseProfiler service)
Source text: (§3) The kinase activity remaining (KAR) value is […] related to kinase activity. […]

[4] = biological target: T2, FGFR1 (fibroblast growth factor receptor-1) (Homo sapiens, UniProt P11362); test: KinaseProfiler assay, FGFR1; type: biochemical; details: read-out: KAR value (kinase activity remaining)
T2 construct: purchased Merck Millipore (KinaseProfiler service)
T2 sequence (P11362 22-822): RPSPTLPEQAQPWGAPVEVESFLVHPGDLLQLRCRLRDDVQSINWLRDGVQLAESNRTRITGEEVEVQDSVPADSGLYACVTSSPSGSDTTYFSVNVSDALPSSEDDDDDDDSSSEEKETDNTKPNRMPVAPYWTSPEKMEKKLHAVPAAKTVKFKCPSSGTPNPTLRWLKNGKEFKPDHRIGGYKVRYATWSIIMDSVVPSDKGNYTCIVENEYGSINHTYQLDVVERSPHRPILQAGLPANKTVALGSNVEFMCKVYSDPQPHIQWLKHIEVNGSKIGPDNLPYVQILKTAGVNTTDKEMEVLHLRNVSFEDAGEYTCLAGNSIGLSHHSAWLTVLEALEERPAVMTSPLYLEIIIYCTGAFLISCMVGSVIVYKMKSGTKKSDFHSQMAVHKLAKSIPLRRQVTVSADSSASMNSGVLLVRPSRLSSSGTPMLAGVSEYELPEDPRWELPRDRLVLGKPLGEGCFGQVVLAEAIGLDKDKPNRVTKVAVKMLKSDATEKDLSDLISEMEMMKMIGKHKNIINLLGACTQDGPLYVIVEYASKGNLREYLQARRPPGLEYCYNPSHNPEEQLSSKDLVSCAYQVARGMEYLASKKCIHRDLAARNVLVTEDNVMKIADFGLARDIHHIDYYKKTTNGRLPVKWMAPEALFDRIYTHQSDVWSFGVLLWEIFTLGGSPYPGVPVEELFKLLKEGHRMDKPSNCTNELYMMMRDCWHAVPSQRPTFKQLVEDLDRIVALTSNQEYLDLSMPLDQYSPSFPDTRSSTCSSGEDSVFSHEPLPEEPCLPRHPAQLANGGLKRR
Source text: as §3

[5] = biological target: T3, STK10 (lymphocyte-oriented kinase) (Homo sapiens, UniProt O94804); test: KinaseProfiler assay, STK10; type: biochemical; details: read-out: KAR value (kinase activity remaining)
T3 construct: purchased Merck Millipore (KinaseProfiler service)
T3 sequence (O94804 whole entry): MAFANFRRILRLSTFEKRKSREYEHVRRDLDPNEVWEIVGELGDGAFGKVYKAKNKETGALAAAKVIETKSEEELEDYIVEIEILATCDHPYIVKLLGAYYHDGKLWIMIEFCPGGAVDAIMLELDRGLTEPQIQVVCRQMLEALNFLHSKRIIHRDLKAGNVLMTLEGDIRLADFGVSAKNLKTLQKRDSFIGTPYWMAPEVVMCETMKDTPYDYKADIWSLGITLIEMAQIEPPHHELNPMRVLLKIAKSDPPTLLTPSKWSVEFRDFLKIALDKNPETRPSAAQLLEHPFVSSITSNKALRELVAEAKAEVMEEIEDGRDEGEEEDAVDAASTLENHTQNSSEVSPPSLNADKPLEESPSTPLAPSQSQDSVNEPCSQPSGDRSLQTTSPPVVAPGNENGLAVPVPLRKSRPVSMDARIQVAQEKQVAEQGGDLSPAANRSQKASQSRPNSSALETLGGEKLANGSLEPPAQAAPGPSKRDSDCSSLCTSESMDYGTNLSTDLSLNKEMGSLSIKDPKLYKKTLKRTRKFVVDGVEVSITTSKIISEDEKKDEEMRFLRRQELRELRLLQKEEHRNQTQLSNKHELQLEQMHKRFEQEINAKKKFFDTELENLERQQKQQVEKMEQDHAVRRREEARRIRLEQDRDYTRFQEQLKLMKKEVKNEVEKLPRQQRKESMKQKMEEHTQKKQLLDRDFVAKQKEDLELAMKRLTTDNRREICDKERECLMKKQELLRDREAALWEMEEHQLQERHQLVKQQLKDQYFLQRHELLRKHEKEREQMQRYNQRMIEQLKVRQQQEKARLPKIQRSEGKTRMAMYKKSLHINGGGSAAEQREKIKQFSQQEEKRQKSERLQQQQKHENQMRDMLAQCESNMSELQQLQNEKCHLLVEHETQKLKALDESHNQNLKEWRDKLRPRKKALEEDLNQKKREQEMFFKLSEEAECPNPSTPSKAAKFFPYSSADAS
Source text: as §3

caspase 3 = test: Western blot of active caspase 3 in A549 cells; details: 10-40 μM, 24 hours
Description: (§4) The protease inhibitors including 1 μg/ml aprotinin, 0.5 μg/ml leupeptin, and 100 μg/ml 4-(2-aminoethyl)benzenesulfonyl fluoride were added to the cell suspensions. The lysates were vibrated for 30 minutes at 4° C. and centrifuged at 10,000 rpm for 10 minutes. The protein concentrations were determined by the BCA protein assay kit (Pierce, Rockford, Ill.). […] The membranes were blocked overnight at 4° C. using blocking buffer (5% non-fat dried milk in solution containing 50 mM Tris/HCl (pH 8.0), 2 mM CaCl2, 80 mM NaCl, 0.05% Tween 20 and 0.02% sodium azide). The membranes were sequentially hybridized with primary antibody and followed with a horseradish peroxidase-conjugated secondary antibody. The protein bands were visualized on the X-ray film using the enhanced chemiluminescence detection system (PerkinElmer Life and Analytical Sciences, Boston, Mass.). […] To verify equal protein loading and transfer, actin was used as the protein loading control. The gel digitizing software, Un-Scan-It gel (Ver. 5.1, Silk Scientific, Inc., Orem, Utah), was used to analyze the intensity of protein bands on X-ray film.
(§5) A549 cells were plated at a density of 1×10^6 cells per 60-mm Petri dish in complete medium for 16 to 20 hours. […] To verify equal protein loading and transfer, actin was used as the protein loading control.

[6] = biological target: T4, MAPK14 (stress-activated protein kinase-2a) (Homo sapiens, UniProt Q16539); test: KinaseProfiler assay, MAPK14; type: biochemical; details: read-out: KAR value (kinase activity remaining)
T4 construct: purchased Merck Millipore (KinaseProfiler service)
T4 sequence (Q16539 whole entry): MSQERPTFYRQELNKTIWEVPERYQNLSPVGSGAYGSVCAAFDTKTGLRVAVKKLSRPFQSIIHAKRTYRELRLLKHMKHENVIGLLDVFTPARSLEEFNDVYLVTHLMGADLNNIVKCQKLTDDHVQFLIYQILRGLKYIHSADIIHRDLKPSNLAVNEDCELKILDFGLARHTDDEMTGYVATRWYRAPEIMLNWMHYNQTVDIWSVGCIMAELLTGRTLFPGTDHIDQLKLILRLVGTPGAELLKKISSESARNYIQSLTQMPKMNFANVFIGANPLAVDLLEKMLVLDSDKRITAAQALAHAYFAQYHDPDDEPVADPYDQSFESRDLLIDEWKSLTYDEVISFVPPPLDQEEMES
Source text: as §3

A549 cells [7] = test: Cell growth, cell number by hemocytometer; type: cell-based, human; details: 30 μM for 24 hours, then cultured 2-6 days
Description: The cells were washed with PBS after the treatment. […] The cell number was calculated with hemocytometer.

[8] = biological target: T5, CSNK2A1 (casein kinase-2) (Homo sapiens, UniProt P68400); test: KinaseProfiler assay, CSNK2A1; type: biochemical; details: read-out: KAR value (kinase activity remaining)
T5 construct: purchased Merck Millipore (KinaseProfiler service)
T5 sequence (P68400 whole entry): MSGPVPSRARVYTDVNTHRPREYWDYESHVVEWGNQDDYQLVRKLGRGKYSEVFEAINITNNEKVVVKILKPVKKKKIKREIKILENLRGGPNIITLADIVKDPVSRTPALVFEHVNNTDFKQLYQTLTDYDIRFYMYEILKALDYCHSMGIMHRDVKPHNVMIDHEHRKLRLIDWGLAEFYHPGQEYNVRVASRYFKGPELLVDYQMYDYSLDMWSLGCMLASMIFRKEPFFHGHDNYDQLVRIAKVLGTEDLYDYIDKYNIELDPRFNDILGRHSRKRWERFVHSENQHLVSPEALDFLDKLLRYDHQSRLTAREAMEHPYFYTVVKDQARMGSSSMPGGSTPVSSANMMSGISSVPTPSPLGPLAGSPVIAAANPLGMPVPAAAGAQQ
Source text: as §3

survivin [9] = test: Western blot of survivin protein expression in A549 cells; details: 0 to 40 μM, 24 hours
Description: as §4, §5

MARK2 (PAR-1Ba) = biological target: T6, MARK2 (PAR-1Ba) (Homo sapiens, UniProt Q7KZI7); test: KinaseProfiler assay, MARK2; type: biochemical; details: read-out: KAR value (kinase activity remaining)
T6 construct: purchased Merck Millipore (KinaseProfiler service)
T6 sequence (Q7KZI7 1-725 isoform Q7KZI7-4): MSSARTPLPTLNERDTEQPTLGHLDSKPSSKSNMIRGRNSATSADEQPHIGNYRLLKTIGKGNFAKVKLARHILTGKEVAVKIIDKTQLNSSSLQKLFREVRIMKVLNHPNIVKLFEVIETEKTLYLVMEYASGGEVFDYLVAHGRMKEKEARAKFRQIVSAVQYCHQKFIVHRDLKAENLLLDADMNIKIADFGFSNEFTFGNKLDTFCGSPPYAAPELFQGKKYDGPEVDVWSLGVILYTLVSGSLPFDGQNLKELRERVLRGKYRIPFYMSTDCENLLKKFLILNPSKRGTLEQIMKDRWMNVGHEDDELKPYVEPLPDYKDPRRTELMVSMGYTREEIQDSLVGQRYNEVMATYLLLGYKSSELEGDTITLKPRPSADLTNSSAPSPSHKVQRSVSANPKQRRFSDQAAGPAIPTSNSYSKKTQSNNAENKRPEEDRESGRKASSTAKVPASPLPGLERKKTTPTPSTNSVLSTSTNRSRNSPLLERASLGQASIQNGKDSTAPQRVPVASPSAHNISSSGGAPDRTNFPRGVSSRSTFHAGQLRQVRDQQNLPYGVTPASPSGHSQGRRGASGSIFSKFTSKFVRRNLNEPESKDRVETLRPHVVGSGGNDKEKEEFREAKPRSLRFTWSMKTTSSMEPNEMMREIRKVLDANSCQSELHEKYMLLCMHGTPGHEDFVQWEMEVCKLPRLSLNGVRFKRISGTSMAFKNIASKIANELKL
Source text: as §3

A549 cells [10] = test: Cell cycle analysis, PI staining and flow cytometry; type: cell-based, human; details: 40 μM, 24 hours, 60.5% before treatment
Description: After the treatment, the cells were collected and fixed with ice-cold 70% ethanol overnight at −20° C. After centrifugation at 1500 rpm for 5 minutes, the pellets were treated with 4 μg/ml PI solution containing 1% Triton X-100 and 50 μg/ml RNase at 37 °C for 30 minutes in the dark. To avoid cell aggregation, the cell solutions were filtrated through nylon membrane (Becton-Dickinson, San Jose, Calif.). Subsequently, the samples were analyzed by flow cytometry. For each measurement, 10,000 cells were analyzed for DNA content. The percentage of cell cycle phases was quantified by ModFit LT software (Ver. 2.0, Becton-Dickinson).

survivin [11] = test: RT-PCR of survivin gene expression in A549 cells; type: cell-based, human; details: 0 to 40 μM, 24 hours
Description: After the treatment, total cellular RNA was purified by ZR RNA MiniPrep™ (Zymo Research, Irvine, Calif.) according to the manufacturer's protocol. RNA concentrations were determined by spectrophotometry. cDNAs were synthesized by SuperScript™ III reverse transcriptase with oligo (dT)12-18 primer (Invitrogen). Each reverse transcript was amplified with GAPDH as an internal control. Reverse transcription polymerase chain reaction (RT-PCR) was performed by a DNA thermal cycler (Mastercycler gradient, Hamburg, Germany). […] The conditions of RT-PCR are stated as followed: the initial denaturation was performed at 94° C. for 2 minutes, followed by 30 cycles at 94° C. for 30 seconds, 56° C. for 30 seconds, and 72° C. for 40 seconds; and 72° C. for 5 minutes. The PCR products were visualized on 1.2% agarose gels with ethidium bromide staining under UV transillumination, and photograph was taken by a camera DH27-S3 (Medclub, Taoyuan, Taiwan).

[12] = biological target: T7, SYK (splenic tyrosine kinase) (Homo sapiens, UniProt P43405); test: KinaseProfiler assay, SYK; type: biochemical; details: read-out: KAR value (kinase activity remaining)
T7 construct: purchased Merck Millipore (KinaseProfiler service)
Source text: as §3

PARP = test: Western blot of cleaved PARP in A549 cells; details: 10-40 μM, 24 hours
Description: as §4, §5

A549 cells [13] = test: Annexin V-PI apoptosis analysis by flow cytometry; type: cell-based, human; details: 10-40 μM for 24 hours
Description: The Annexin V-PI staining kit (BioVision, Mountain View, Calif.) was used to exam the cells by incubating with fluorescent isothiocyanate (FITC)-conjugated-Annexin V and PI according to the manufacturer's instruction. […] The cells were cultured in 60-mm Petri dish at a density of 7×10^5 cells for 16 to 20 hours. […] The cells were trypsinized and collected by centrifugation at 1500 rpm for 5 minutes. Thereafter, the cells were incubated with 500 μl Annexin V-PI labeling solution (containing 5 μl Annexin V-FITC and 5 μl PI in PBS) at room temperature in the dark for 5 minutes. To avoid cell aggregation, the cell solutions were filtered through a nylon mesh membrane (Becton-Dickinson, San Jose, Calif.). Finally, the samples were analyzed immediately using flow cytometer (FACS Calibur, BD Biosciences, Heidelberg, Germany). The percentage of Annexin V-PI staining cells was quantified from a minimum of 10,000 cells by CellQuest software (BD Biosciences).

[14] = biological target: T8, LIMK1 (LIM motif-containing protein kinase-1) (Homo sapiens, UniProt P53667); test: KinaseProfiler assay, LIMK1; type: biochemical; details: read-out: KAR value (kinase activity remaining)
T8 construct: purchased Merck Millipore (KinaseProfiler service)
T8 sequence (P53667 whole entry): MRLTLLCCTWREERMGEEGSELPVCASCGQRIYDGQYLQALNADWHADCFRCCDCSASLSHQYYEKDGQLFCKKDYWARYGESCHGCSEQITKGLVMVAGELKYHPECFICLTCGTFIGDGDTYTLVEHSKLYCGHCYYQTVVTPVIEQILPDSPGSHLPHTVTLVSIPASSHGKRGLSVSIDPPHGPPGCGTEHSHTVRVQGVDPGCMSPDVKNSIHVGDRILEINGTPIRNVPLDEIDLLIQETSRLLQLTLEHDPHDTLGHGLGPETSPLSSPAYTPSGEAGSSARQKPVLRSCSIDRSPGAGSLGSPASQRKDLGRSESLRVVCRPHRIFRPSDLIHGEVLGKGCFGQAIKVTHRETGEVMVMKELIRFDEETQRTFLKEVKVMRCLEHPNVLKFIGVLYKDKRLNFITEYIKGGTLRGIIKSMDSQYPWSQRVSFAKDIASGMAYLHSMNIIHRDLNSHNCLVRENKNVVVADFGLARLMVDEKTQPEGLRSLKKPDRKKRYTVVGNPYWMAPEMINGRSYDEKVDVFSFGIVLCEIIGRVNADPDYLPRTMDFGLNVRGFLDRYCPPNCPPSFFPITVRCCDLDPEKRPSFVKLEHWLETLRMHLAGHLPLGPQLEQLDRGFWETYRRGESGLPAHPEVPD
Source text: as §3

[15] = MTT cell viability, HFL1 normal lung fibroblasts; type: cell-based; details: human, HFL1 normal lung fibroblast cells, 0 to 40 μM
Description: as §2

[16] = biological target: T9, MKNK2 (MAPK-interacting kinase-2) (Homo sapiens, UniProt Q9HBH9); test: KinaseProfiler assay, MKNK2; type: biochemical; details: read-out: KAR value (kinase activity remaining)
T9 construct: purchased Merck Millipore (KinaseProfiler service)
T9 sequence (Q9HBH9 whole entry): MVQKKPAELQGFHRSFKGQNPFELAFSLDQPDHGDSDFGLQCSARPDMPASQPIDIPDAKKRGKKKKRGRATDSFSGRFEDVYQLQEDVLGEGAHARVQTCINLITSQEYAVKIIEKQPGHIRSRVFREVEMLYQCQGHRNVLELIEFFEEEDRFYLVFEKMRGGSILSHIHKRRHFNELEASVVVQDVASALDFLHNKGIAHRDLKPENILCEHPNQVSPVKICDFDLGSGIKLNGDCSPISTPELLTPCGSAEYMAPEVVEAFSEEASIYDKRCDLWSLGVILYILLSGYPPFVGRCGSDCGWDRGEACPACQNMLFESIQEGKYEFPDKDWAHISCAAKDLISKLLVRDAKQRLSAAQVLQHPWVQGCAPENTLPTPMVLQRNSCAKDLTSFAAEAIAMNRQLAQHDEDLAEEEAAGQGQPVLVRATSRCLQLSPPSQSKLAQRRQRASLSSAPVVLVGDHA
Source text: as §3

| Compound | toxicity effect on RKO cells [1] | viability at 10 µM (A549 cell line) [%] | viability at 20 µM (A549 cell line) [%] | viability at 40 µM (A549 cell line) [%] | viability at 60 µM (A549 cell line) [%] | viability at 80 µM (A549 cell line) [%] | toxicity effect on BFTC905 cells [2] | further results |
| --- | --- | --- | --- | --- | --- | --- | --- | --- |
| COC(=O)CCC(=O)N1CCN(CCCOc2cc3c(Nc4ccc(F)c(Cl)c4)ncnc3cc2OC)CC1 [Analogue-1, methyl 4-(4-(3-(4-(3-chloro-4-fluorophenylamino)-7-methoxyquinazolin-6-yloxy)propyl)piperazin-1-yl)-4-oxobutanoate] | more effective on cell death of RKO cells and BFTC905 cells than Iressa | 89.1 | 85.6 | 75.9 | 74.4 | 75.9 | more effective on cell death of RKO cells and BFTC905 cells than Iressa | – |
| COc1cc2ncnc(Nc3ccc(F)c(Cl)c3)c2cc1OCCCN1CCN(C(=O)CCC(=O)O)CC1 [Analogue-2, 4-(4-(3-(4-(3-chloro-4-fluorophenylamino)-7-methoxyquinazolin-6-yloxy)propyl)piperazin-1-yl)-4-oxobutanoic acid] | no toxicity effect on RKO cells | – | – | – | – | – | minor toxicity effect on BFTC905 cells | – |
| CCCCCCCCCCCCCCCCCCOC(=O)CCC(=O)N1CCN(CCCOc2cc3c(Nc4ccc(F)c(Cl)c4)ncnc3cc2OC)CC1 [Analogue-24, octadecyl 4-(4-(3-(4-(3-chloro-4-fluorophenylamino)-7-methoxyquinazolin-6-yloxy)propyl)piperazin-1-yl)-4-oxobutanoate] | – | 94.8 | 90.5 | 91 | 87.2 | 86.7 | – | – |
| CCCCCCCCCCCCCCCCCCCOC(=O)CCC(=O)N1CCN(CCCOc2cc3c(Nc4ccc(F)c(Cl)c4)ncnc3cc2OC)CC1 [Analogue-25, nonadecyl 4-(4-(3-(4-(3-chloro-4-fluorophenylamino)-7-methoxyquinazolin-6-yloxy)propyl)piperazin-1-yl)-4-oxobutanoate] | – | 94.5 | 94.8 | 92.3 | 89.3 | 88.4 | – | – |
| CCCCCCCCCCCCCCCCCCCCOC(=O)CCC(=O)N1CCN(CCCOc2cc3c(Nc4ccc(F)c(Cl)c4)ncnc3cc2OC)CC1 [Analogue-26, icosyl 4-(4-(3-(4-(3-chloro-4-fluorophenylamino)-7-methoxyquinazolin-6-yloxy)propyl)piperazin-1-yl)-4-oxobutanoate] | – | 94 | 90.8 | 87.1 | 86.9 | 85.2 | – | – |
| COc1cc2ncnc(Nc3ccc(F)c(Cl)c3)c2cc1OCCCN1CCOCC1 [Iressa, Gefitinib, reference compound] | – | 86.7 | 82.1 | 74.3 | 64.6 | 60.8 | – | remaining activity at 10 µM [3]: 30%; remaining activity at 10 µM [4]: 27%; remaining activity at 10 µM [5]: 19%; active form of caspase 3 (caspase 3): did not induce any significant change of caspase 3 and PARP; remaining activity at 10 µM [6]: 20%; cell growth of A549 cells (A549 cells [7]): inhibit cell growth of A549 cells; remaining activity at 10 µM [8]: 92%; survivin protein expression (survivin [9]): significantly inhibited surviving protein expression; remaining activity at 10 µM (MARK2 (PAR-1Ba)): 86%; average percentage of G1 fractions (A549 cells [10]): 76.1%; survivin gene expression (survivin [11]): no significant change; remaining activity at 10 µM [12]: 84%; cleaved form of PARP (PARP): did not induce any significant change of caspase 3 and PARP; average of total apoptosis (A549 cells [13]): around 19.6%; remaining activity at 10 µM [14]: 76%; viability at 24 h [15]: > 30%; remaining activity at 10 µM [16]: 9% |
